These results are taken from patent US20210260055A1, “TOPICAL FORMULATIONS OF DGAT1 INHIBITORS AND THEIR METHODS OF USE” (Dermavant Sciences GmbH, priority 2018, published 2021).

Experiment [1] relates to Human immortalized sebocytes. As to the kind of experiment: Cleaved Caspase 3 Assay. It counts as cell-based. Particulars: for cleaved caspase 3: any concentration, 2, 3 and 5 day treatment; for sebocyte apoptosis: conditions of this in vitro assay. How it is done: This assay examines the ability of compounds to induce apoptosis by measuring Caspase 3 generated by proteolytic processing. Cells were seeded in tissue culture treated clear bottom plates. Compounds were added in the presence of Liver X Receptor (LXR) agonist (T0901317) and 1 μM insulin for 2, 3 and 5 days. For the 5 day treatment fresh compounds were added at Day 3. After the treatment period lysates were prepared according to the manufacturer's instructions and frozen at −80° C. until the day of the assay.
Protocol—Day 1: Human immortalized sebocytes were seeded at 10,000 cells/well in 96-well, clear bottom plates in Sebocyte Growth Medium and allowed to attach overnight at 37° C. Day 2: Medium was refreshed by removing seeding medium and adding fresh Sebocyte Growth Medium. Cells were maintained at 37° C. to allow degradation of the temperature sensitive SV40 large T antigen. Day 4: 1000× stocks (in DMSO) of each compound were prepared (3 mM and 100 μM) and were diluted 1:1000 in Sebocyte Treatment Media containing 1 μM T0901317 and 1 μM Insulin to give a final top concentration of 3000 nM and 100 nM for further 10-fold dilutions in the same medium according to the plate map below. The cell medium was removed and replaced with Sebocyte Treatment Medium containing 1 μM T0901317, 1 μM Insulin, compound dilution, or vehicle (DMSO) as per plate maps for a 2, 3 and 5 day treatment. For untreated controls, media was removed and replaced with Sebocyte Treatment Media only (no T091317 or Insulin). For the 5 day treatment cells were retreated as described above on Day 7. Day 6, 7 or Day 9: 1) After treatment, the plate was centrifuged at 300×g for 10 minutes. 2) After centrifugation, the medium was removed the cells rinsed with ice-cold PBS and then centrifuged again at 300×g for 10 minutes. 3) After centrifugation the PBS was removed and replaced with 30 μl/well and left on ice for 5 minutes. 4) After 5 minutes, the lysates were frozen at −80° C. until the day of the assay. Day of Assay: Buffers and reagents were prepared according to the manufacturer's instructions. 1) 25 μl of lysate was added to the corresponding well of a 96 well black clear bottom plates. 2) 200 μl of the prepared substrate solution B was added to each well. 3) After 1 hr incubation in the dark, the relative fluorescence was determined using the following settings: 380ex/420em.
Data analysis—IC50s were determined for each test sample by using appropriate curve fits in GraphPad Prism (v.7). […]

The test system of a further experiment is human sebocyte cell line. As to the kind of experiment: Nile Red Neutral Lipid Accumulation Assay. The class given is cell-based. Particulars: day 3 of treatment, with 1 μM T0901317 and 1 μM insulin. Here is the method: This assay examines the ability of compounds to stimulate or inhibit lipid accumulation in human sebocyte cell line. Cells were seeded in tissue culture treated black clear bottom plates. Compounds were added in the presence of Liver X Receptor (LXR) agonist (T0901317) and 1 μM insulin for 3 days and 5 days. For the 5 day treatment fresh compounds were added at Day 3. After the treatment period nile red dye was added and the relative fluorescence determined for both total and neutral lipids. The neutral/total lipid ratio was calculated and obtained values were normalized to both the Cell Titer Blue viability reagent.
Protocol—Day 1: Human immortalized sebocytes were seeded at 10,000 cells/well in 96-well black, clear bottom plates in Sebocyte Growth Medium and allowed to attach overnight at 37° C. […] 3) The relative fluorescence (RFU) of the incorporated stain was determined under 2 parameters: 540ex/620em with no cutoff (Total Lipid), and 485ex/555em with a 515 cutoff (Neutral Lipid) using bottom reads. […] Cell titer blue reagent (100 was then added to each well and the cells were allowed to incubate for 2 hours at 37° C., 5% CO2. 5) The RFU value was determined at 560ex/590em with a 570 cutoff using a top read.
Data Analysis—Cell viability is presented as cell titer blue fluorescence reading (RFU) for each treatment. […] Minimum and maximum values are determined by UNT and LXR+INS controls. […]

As usually defined, the IC50 is the point on the concentration scale where inhibition reaches its midpoint. A low value points to greater potency.

In the case of `Cc1nc(C)c(-c2ccc([C@H]3CC[C@H](CC(=O)O)CC3)cc2)nc1C(N)=O` [DMVT-503, 2-((1R,4R)-4-(4-(6-carbamoyl-3,5-dimethylpyrazin-2-yl)phenyl)cyclohexyl)acetic acid], in experiment [1], the “cleaved caspase 3” value is listed as “No significant cleaved caspase 3 detected” and the sebocyte apoptosis entry was “did not induce sebocyte apoptosis”. This compound also registered an IC50 with human sebocyte cell line (Homo sapiens, 72 h) of 0.0252 µM.
As for `CC1=C(/C=C/C(C)=C/C=C/C(C)=C\C(=O)O)C(C)(C)CCC1` [Mix 13-cis-RA, 13-cis-retinoic Acid, reference compound], in experiment [1], the “cleaved caspase 3” value is on record as “No significant cleaved caspase 3 detected” and the sebocyte apoptosis result was “did not induce sebocyte apoptosis”. In the experiment on human sebocyte cell line, this compound showed an IC50 of 0.829 µM.
